Experimental data as given in BindingDB's records for doi:10.1016/j.bmcl.2009.09.046 (Ligand Pharmaceuticals, 2009).

Assay: Inhibition of ROCK1 in human THP1 cells assessed as inhibition of MCP1-induced cell migration

Row | IC50 [nM] | SMILES
1 | 57 | c1ccc2c(c1)CC(Oc1nc(Nc3ccncc3)nc(N3CCNCC3)n1)C2 [4-(2,3-dihydro-1H-inden-2-yloxy)-6-(piperazin-1-yl)-N-(pyridin-4-yl)-1,3,5-triazin-2-amine]
2 | 26 | C[C@@H]1CN(c2nc(Nc3ccncc3)nc(NC3Cc4ccccc4C3)n2)CCN1 [(R)-N2-(2,3-dihydro-1H-inden-2-yl)-6-(3-methylpiperazin-1-yl)-N4-(pyridin-4-yl)-1,3,5-triazine-2,4-diamine]
3 | 12 | c1ccc2c(c1)CC(Nc1cc(Nc3ccncc3)nc(N3CCNCC3)n1)C2 [N4-(2,3-dihydro-1H-inden-2-yl)-2-(piperazin-1-yl)-N6-(pyridin-4-yl)pyrimidine-4,6-diamine]
4 | 154 | c1ccc2c(c1)CC(Nc1cc(N3CCNCC3)nc(Nc3ccncc3)n1)C2 [N4-(2,3-dihydro-1H-inden-2-yl)-6-(piperazin-1-yl)-N2-(pyridin-4-yl)pyrimidine-2,4-diamine]
